In ChEMBL document CHEMBL1201862, “PubChem BioAssay data set” (2004):
Active and inactive are the calls of the source.

Assays:
[1] = biological target: T1, Polyadenylate-binding protein 1 (Homo sapiens, UniProt P11940); assay: MLLE domain peptide-binding blockers, IC50 – biochemical, fluorescence polarization, FITC-PAM2 peptide, dose response (AID 602259); type: functional; conditions: read-out: IC50_Mean
[2] = biological target: Metabotropic glutamate receptor 7 (Homo sapiens, UniProt Q14831); assay: potentiation of glutamate EC20 at mGlu7 – cell-based, calcium mobilization, Galpha15, dose response (AID 743384); type: functional
Metabotropic glutamate receptor 7, sequence (Q14831 whole entry): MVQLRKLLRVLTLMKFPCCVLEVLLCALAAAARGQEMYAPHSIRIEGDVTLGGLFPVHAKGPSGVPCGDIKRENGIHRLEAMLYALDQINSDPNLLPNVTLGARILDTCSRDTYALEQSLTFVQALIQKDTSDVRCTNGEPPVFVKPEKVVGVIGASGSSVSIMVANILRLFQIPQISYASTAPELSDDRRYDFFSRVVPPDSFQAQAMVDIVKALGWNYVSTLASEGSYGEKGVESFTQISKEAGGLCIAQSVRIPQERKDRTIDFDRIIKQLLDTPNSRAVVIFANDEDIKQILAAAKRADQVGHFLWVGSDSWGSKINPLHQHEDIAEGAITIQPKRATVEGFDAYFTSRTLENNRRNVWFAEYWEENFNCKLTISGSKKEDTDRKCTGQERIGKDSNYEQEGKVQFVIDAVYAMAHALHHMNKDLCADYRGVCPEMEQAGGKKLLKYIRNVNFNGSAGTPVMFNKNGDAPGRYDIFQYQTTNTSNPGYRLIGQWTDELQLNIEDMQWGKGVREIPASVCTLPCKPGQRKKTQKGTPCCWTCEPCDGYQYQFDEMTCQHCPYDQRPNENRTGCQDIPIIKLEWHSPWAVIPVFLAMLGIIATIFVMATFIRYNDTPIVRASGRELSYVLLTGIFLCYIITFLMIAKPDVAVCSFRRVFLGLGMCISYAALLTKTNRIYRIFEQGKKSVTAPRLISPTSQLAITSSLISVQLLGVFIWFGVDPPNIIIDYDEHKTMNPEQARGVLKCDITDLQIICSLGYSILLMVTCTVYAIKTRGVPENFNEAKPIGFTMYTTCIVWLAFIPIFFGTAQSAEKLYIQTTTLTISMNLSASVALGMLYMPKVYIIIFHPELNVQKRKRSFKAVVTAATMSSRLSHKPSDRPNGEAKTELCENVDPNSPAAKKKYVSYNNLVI

[3] = biological target: T1, Polyadenylate-binding protein 1; assay: MLLE binding blockers, Cy5 peptide tracer – biochemical, fluorescence polarization, Cy5-PAM2 peptide, secondary, miRNA deadenylation inhibitor project, dose response (AID 602260); type: functional; conditions: read-out: IC50_Mean
[4] = biological target: T2, Sentrin-specific protease 8 (Homo sapiens, UniProt Q96LD8); type: functional;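 note: luminescence read-out of SENP8 inhibition, dose-response confirmation following an ultra-high-throughput screen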
T2 sequence (Q96LD8 whole entry): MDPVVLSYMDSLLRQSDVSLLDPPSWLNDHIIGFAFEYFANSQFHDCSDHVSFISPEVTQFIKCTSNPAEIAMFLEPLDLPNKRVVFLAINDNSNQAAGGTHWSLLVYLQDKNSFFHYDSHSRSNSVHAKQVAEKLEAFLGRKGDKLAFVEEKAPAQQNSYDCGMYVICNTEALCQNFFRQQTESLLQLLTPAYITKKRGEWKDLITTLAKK

Caspase-6 = biological target: T3, Caspase-6 (Homo sapiens, UniProt P55212); assay: inhibition of CASP6 peptide cleavage – biochemical, VEID-R110 fluorescence, cherry-pick, dose response (AID 720632)
T3 sequence (P55212 whole entry): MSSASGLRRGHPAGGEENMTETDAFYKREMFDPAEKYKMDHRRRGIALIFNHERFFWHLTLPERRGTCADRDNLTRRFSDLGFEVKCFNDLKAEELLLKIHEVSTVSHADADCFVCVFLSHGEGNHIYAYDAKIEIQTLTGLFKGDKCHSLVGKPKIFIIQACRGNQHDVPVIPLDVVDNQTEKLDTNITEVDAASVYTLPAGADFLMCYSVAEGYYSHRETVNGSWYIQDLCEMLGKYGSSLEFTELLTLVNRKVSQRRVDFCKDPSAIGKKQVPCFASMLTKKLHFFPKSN

Caspase-3 = biological target: T4, Caspase-3 (Homo sapiens, UniProt P42574); type: functional;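 note: Dose-response selectivity test against caspase-3 for candidate inhibitors of sentrin-specific proteases (SENPs)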
T4 sequence (P42574 whole entry): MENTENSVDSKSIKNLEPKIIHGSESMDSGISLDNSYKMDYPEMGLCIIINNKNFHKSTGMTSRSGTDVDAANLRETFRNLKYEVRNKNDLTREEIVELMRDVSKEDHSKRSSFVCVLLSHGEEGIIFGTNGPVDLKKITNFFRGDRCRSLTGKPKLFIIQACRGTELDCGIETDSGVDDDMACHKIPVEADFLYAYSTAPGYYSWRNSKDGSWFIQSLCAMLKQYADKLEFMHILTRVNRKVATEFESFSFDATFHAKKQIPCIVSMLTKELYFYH

Caspase-9 = Caspase-9 (Homo sapiens, UniProt P55211); assay: inhibitors of purified CASP9 protease – biochemical, fluorescence, plate reader, cherry-picked samples, selectivity assay for caspase-6 inhibitor project, dose response (AID 743293)
Caspase-9, sequence (P55211 1-315 limits assumed): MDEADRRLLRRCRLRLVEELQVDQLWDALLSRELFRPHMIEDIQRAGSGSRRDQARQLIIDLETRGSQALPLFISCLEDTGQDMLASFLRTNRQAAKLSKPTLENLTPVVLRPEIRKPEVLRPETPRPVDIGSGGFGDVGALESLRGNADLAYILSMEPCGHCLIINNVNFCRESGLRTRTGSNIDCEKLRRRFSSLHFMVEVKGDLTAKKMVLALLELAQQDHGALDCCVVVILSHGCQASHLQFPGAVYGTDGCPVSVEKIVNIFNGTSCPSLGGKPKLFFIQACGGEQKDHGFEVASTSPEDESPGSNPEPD
Caspase-9, sequence (P55211 331-416 limits assumed): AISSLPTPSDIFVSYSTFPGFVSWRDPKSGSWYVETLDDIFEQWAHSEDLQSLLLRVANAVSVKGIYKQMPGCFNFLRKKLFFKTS

[5] = biological target: T5, Sentrin-specific protease 6 (Homo sapiens, UniProt Q9GZR1); type: functional;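 note: Luminescence-based dose-response confirmatory assay of SENP6 inhibition, following up an ultra-high-throughput screen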
T5 sequence (Q9GZR1 whole entry): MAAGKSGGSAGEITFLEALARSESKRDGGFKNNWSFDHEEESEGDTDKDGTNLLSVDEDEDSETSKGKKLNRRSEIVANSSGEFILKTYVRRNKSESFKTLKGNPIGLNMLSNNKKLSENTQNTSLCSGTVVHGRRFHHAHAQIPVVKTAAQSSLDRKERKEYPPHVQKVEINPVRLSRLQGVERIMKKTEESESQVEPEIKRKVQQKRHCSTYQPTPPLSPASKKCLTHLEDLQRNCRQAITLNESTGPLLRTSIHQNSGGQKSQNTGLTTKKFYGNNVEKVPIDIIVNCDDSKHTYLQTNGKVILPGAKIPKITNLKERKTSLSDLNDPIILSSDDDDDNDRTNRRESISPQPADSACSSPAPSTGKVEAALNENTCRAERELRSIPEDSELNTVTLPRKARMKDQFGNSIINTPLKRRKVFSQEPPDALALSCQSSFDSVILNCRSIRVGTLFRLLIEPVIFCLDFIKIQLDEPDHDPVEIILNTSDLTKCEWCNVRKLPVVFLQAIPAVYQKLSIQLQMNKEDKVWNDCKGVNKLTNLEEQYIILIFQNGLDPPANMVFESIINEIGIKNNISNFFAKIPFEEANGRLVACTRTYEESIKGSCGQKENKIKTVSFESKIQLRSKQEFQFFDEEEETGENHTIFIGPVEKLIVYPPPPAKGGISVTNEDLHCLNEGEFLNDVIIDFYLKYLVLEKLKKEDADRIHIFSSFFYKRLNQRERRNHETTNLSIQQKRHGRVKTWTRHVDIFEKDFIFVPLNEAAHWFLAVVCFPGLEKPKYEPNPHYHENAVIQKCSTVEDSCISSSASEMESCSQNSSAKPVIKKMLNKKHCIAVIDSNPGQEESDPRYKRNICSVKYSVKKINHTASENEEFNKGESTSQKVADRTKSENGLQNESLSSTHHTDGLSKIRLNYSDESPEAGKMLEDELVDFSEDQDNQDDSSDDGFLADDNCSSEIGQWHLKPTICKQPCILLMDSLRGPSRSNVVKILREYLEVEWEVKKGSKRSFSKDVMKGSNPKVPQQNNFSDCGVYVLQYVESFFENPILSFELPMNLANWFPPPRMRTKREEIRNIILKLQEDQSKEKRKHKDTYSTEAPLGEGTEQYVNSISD

Caspase-7 = Caspase-7 (Homo sapiens, UniProt P55210); assay: caspase-7 enzyme inhibition, selectivity check – biochemical, DEVD-R110 fluorescence, cherry-pick, selectivity assay for caspase-6 inhibitor project, dose response (AID 743295); type: functional
Caspase-7, sequence (P55210 24-198 limits assumed): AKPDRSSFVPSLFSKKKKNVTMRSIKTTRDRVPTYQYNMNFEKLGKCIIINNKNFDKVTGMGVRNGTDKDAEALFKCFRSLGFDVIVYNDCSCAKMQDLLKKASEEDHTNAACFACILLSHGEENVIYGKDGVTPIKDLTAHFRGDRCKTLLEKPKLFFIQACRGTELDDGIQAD
Caspase-7, sequence (P55210 207-303 limits assumed): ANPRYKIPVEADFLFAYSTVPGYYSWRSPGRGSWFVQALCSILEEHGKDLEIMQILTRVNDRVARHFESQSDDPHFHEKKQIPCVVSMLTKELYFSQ

[6] = biological target: T6, Sentrin-specific protease 7 (Homo sapiens, UniProt Q9BQF6); type: functional;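 note: Luminescence-based dose-response confirmation of ultra-high-throughput screening hits, measuring inhibition of SENP7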
T6 sequence (Q9BQF6 whole entry): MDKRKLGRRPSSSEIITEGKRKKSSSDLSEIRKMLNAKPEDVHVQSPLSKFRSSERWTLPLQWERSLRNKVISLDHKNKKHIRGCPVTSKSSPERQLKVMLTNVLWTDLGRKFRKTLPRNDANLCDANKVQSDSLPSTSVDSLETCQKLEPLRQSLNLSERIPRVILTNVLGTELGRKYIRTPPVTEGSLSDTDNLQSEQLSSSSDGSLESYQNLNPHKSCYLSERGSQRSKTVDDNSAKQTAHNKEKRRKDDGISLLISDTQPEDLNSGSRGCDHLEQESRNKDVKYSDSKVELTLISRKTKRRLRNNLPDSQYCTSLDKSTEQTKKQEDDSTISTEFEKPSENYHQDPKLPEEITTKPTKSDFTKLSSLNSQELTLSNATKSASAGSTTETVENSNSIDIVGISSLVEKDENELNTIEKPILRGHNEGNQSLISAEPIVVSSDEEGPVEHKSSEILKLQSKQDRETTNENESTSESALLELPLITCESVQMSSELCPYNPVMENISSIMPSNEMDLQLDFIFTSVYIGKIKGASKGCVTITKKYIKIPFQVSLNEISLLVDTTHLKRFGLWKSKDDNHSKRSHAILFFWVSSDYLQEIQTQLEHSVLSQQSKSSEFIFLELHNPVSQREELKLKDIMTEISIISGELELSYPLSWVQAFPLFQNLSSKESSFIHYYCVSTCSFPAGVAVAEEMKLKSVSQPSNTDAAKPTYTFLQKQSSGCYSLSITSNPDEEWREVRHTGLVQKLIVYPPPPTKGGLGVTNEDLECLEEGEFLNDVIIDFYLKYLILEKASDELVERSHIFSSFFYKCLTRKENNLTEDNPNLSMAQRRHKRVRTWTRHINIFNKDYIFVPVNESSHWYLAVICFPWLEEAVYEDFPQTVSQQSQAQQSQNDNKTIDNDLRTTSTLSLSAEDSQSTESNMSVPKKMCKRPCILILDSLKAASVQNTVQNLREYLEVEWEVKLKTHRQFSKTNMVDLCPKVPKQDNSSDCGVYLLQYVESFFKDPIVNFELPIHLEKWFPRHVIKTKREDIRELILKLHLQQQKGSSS

Caspase-8 = Caspase-8 (Homo sapiens, UniProt Q14790); assay: inhibitors of purified CASP8 protease – biochemical, Z-IETD-R110 fluorescence, cherry-picked samples, selectivity assay for caspase-6 inhibitor project, dose response (AID 743294)
Caspase-8, sequence (Q14790 217-374 limits assumed): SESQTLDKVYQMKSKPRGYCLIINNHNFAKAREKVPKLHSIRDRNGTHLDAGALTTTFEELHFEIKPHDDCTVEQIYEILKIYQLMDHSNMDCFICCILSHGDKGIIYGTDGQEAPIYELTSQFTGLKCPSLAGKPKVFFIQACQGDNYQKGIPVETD
Caspase-8, sequence (Q14790 385-479 limits assumed): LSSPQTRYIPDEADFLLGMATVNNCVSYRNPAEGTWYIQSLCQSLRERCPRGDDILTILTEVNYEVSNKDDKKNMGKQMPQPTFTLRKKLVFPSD

[7] = biological target: T7, Mitochondrial peptide methionine sulfoxide reductase (Bos taurus, UniProt P54149); assay: Absorbance-based biochemical high throughput dose response assay for activators of Methionine sulfoxide reductase A (MsrA).; type: functional
T7 sequence (P54149 whole entry): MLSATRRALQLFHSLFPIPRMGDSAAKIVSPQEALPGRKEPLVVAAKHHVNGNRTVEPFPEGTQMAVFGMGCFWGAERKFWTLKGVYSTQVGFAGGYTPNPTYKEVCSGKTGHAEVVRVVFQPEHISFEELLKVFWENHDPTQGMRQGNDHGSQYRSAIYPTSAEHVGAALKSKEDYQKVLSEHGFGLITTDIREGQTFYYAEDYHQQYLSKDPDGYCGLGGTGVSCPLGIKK

[8] = biological target: Disintegrin and metalloproteinase domain-containing protein 17 (Homo sapiens, UniProt P78536); assay: inhibition of ADAM17 substrate cleavage – biochemical, quenched FRET substrate, counter-screen for ADAM10 exosite inhibitor project, dose response (AID 743253)
Disintegrin and metalloproteinase domain-containing protein 17, sequence (P78536 whole entry, the tested form may be a part): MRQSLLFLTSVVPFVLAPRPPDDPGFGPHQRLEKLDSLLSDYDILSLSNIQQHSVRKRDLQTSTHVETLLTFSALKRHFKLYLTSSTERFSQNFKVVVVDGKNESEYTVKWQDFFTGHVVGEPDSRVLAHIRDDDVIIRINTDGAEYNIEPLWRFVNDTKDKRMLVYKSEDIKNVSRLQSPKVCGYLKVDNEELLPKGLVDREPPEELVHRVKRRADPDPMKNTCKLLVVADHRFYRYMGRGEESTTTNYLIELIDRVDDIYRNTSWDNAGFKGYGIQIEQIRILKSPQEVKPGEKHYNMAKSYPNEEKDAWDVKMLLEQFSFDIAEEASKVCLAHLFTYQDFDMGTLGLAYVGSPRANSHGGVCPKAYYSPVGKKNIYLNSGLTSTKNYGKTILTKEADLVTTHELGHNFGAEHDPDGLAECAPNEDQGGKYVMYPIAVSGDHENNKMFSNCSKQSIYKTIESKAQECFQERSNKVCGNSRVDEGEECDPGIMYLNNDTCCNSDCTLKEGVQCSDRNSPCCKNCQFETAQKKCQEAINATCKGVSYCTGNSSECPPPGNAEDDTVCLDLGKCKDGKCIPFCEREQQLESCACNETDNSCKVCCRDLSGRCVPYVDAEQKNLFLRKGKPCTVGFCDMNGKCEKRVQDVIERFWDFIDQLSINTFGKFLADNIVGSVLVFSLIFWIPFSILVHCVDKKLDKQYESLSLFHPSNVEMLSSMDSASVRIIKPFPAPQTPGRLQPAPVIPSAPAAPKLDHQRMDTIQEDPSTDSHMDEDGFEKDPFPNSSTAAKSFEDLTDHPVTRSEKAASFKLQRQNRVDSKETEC

[9] = potency of ADAM10 substrate cleavage blockers – biochemical, QFRET, dose response (AID 743254);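 note: ADAM10 enzyme with the DM2 quenched FRET peptide as substrate; EDANS fluorescence gain as the protease cuts the substrate; inhibitor potency against ADAM10 proteolytic activity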
[10] = Luminescence Cell-Based Dose Retest to Confirm Inhibitors of Cancer Stem Cells. [Related pubchem assays (depositor defined):AID2717, AID2721]; type: functional; conditions: Homo sapiens
[11] = viability of HCT116 lacking mutant beta-catenin – cell-based, human colon tumor, dose response (AID 1045); type: functional;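 note: HCT116 colon tumor cells with beta catenin knocked out; cells exposed to compound for 60 hours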
[12] = viability of PTEN-deleted HCT116 cells – cell-based, HCT116 PTEN knockout, dose response (AID 1047); type: functional;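 note: HCT116 colon tumor cells with PTEN knocked out; cells exposed to compound for 60 hours before readout; potency for loss of cell viability measured by luminescence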
[13] = biological target: Sphingosine 1-phosphate receptor 2 (Homo sapiens, UniProt O95136); assay: Dose Response Cell Based Assay for Agonists of the S1P2 Receptor. [Related pubchem assays: 729, 736, 843 ]; type: functional
Sphingosine 1-phosphate receptor 2, sequence (O95136 whole entry): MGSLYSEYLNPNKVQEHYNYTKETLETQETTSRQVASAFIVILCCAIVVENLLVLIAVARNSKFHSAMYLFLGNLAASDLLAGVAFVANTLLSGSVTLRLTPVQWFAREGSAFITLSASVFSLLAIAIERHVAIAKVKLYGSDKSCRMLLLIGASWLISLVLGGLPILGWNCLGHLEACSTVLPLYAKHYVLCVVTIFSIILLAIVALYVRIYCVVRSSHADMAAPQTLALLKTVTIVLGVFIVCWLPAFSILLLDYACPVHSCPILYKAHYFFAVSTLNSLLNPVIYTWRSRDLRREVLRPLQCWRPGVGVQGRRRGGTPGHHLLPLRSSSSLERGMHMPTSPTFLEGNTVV

[14] = glucagon-like peptide-1 release potency in STC-1, concentration-response, half-maximal inhibitory concentration in the STC-1 line (AID 1117345); type: functional, cell-based
[15] = Potency on glucagon-like peptide 1 release, dose-response in NCI-H716 cell line, half maximal inhibitory concentration (AID 1117344); type: functional, cell-based
[16] = biological target: E3 ubiquitin-protein ligase Mdm2 (Homo sapiens, UniProt Q00987); assay: MDM2-luc reporter signal enhancers, multi-concentration potency testing, MDM2 ubiquitin-protein ligase inhibitor program, whole-cell format, luminescence detection, 384-well microplate (AID 1394); type: functional;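 note: MDM2 E3 inhibitors raise luminescence so EC50 is for signal enhancement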
E3 ubiquitin-protein ligase Mdm2, sequence (Q00987 whole entry): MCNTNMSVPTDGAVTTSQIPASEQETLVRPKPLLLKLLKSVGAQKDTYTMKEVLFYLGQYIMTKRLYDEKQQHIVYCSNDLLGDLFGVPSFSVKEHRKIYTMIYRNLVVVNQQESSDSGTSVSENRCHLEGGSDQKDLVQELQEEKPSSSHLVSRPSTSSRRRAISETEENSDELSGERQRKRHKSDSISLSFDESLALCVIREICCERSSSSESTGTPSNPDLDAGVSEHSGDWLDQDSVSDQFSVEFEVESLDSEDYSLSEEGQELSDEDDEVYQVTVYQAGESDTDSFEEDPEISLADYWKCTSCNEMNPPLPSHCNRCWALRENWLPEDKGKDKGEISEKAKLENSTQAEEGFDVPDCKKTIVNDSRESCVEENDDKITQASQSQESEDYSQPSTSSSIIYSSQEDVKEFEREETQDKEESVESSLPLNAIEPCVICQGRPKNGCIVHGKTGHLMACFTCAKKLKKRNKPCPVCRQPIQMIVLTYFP

T1 sequence (P11940 whole entry, the tested form may be a part): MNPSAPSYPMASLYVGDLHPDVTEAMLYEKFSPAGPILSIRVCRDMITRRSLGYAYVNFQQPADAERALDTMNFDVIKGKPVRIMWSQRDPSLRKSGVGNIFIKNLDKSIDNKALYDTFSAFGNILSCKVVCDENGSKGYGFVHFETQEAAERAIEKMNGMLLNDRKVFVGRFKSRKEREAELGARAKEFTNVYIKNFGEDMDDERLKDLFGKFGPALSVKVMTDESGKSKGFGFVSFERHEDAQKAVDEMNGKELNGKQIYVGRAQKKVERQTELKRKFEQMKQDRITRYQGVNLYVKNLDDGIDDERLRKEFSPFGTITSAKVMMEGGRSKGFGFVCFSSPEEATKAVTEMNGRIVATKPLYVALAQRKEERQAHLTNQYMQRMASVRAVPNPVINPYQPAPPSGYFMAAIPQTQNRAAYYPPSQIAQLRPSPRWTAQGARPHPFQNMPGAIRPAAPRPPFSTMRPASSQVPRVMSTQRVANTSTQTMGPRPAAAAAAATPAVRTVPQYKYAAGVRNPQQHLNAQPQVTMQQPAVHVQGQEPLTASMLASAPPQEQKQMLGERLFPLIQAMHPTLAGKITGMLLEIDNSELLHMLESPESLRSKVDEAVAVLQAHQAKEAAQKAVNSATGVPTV

## CC(=O)Nc1ccc(SCC(=O)c2cc(C)n(-c3ccccc3F)c2C)cc1
[1]
  IC50: > 66 µM (inactive)
[2]
  EC50: 2.4 µM (active)
[3]
  IC50: > 66 µM (inactive)

## O=C(COC(=O)c1ccc([N+](=O)[O-])s1)Nc1ccccc1
[4]
  IC50: 4.04 µM (active)
Caspase-6
  AC50: 2.49 µM (active)
Caspase-3
  IC50: 8.76 µM (active)
Caspase-9
  AC50: 25.5 µM (active)
[5]
  IC50: 4.39 µM (active)
Caspase-7
  AC50: 17.4 µM (active)
[6]
  IC50: 6.5 µM (active)
Caspase-8
  AC50: 25.5 µM (active)
[7]
  EC50: 57.5 µM (inactive)

## COc1ccc(C(c2c[nH]c3ccccc23)c2c[nH]c3ccccc23)cc1O
[8]
  IC50: > 69.5 µM (inactive)
[9]
  IC50: > 69.5 µM (inactive)
[10]
  AC50: 4.09 µM (active)
[11]
  EC50: 558 µM (active)
[12]
  EC50: 31 µM (active)
[13]
  EC50: > 50 µM (not active)

## Nc1cc(C(F)(F)F)ccc1S
[14]
  IC50: 1.16 µM (active)
[15]
  IC50: 15.3 µM (inactive)

## COc1ccccc1N1CCN(C(c2ccc(C)cc2)c2nnnn2C(C)C)CC1 (stereo unspecified)
[16]
  EC50: 14.5 µM (not active)
